Drawing on ChEMBL document CHEMBL3044869, “Cross-resistance patterns and fitness in fufenozide-resistant diamondback moth, Plutella xylostella (Lepidoptera: Plutellidae)” (2012), this text covers RatioLC50 and LC50 for 13 compounds.

Assay type in all cases: functional
Assay [1] relates to Plutella xylostella. Nature of the assay: Resistance ratio, ratio of LC50 for third-instar larvae of fufenozide-resistant Plutella xylostella (diamondback moth) to LC50 for third-instar larvae of fufenozide-susceptible Plutella xylostella.
For assay [2], the system named is Plutella xylostella. The assay can be described thus: Insecticidal activity against third-instar larvae of fufenozide-susceptible Plutella xylostella (diamondback moth) assessed as mortality by leaf-dip bioassay method.
The test system of assay [3] is Plutella xylostella. Nature of the assay: Insecticidal activity against third-instar larvae of fufenozide-resistant Plutella xylostella (diamondback moth) assessed as mortality by leaf-dip bioassay method.

≈ marks a conversion by molar mass, not a printed value.

As to `CC1(C)[C@H](C=C(Cl)Cl)[C@H]1C(=O)O[C@@H](C#N)c1cccc(Oc2ccccc2)c1` [BETA-CYPERMETHRIN], in the assay with Plutella xylostella [1], the RatioLC50 was determined as 1.35. Moreover, the LC50 in the assay with Plutella xylostella [2] stood at 35.2 µg/mL (≈ 84.6 µM); with Plutella xylostella [3], 47.5 µg/mL (≈ 114 µM).

On to `CCOP(=S)(OCC)Oc1nc(Cl)c(Cl)cc1Cl` [CHLORPYRIFOS], for which the RatioLC50 in the assay on Plutella xylostella [1] amounted to 1.75. Besides, the LC50 came out at 122 µg/mL (≈ 349 µM) in the assay on Plutella xylostella [2] and 215 µg/mL (≈ 613 µM) in the assay on Plutella xylostella [3].

With `O=C(NC(=O)c1c(F)cccc1F)Nc1ccc(Cl)cc1` [DIFLUBENZURON], in the assay with Plutella xylostella [1], the RatioLC50 is listed as 17.2. Moreover, the LC50 in the assay with Plutella xylostella [2] is 19.9 µg/mL (≈ 64.1 µM); in the assay on Plutella xylostella [3], 342 µg/mL (≈ 1100 µM).

On to `CCOCn1c(-c2ccc(Cl)cc2)c(C#N)c(Br)c1C(F)(F)F` [CHLORFENAPYR], for which the RatioLC50 in the assay with Plutella xylostella [1] was 1.11. Further, the LC50 with Plutella xylostella [2] was determined as 2.96 µg/mL (≈ 7.26 µM); in the assay on Plutella xylostella [3], 3.3 µg/mL (≈ 8.1 µM).

With `CCOP(=S)(OCC)O/N=C(\C#N)c1ccccc1` [PHOXIM], the RatioLC50 with Plutella xylostella [1] was 1.58. The results for the LC50 with Plutella xylostella [2] and in the assay with Plutella xylostella [3] were 102 µg/mL (≈ 341 µM) and 161 µg/mL (≈ 540 µM), respectively.

For `COc1cccc(C(=O)NN(C(=O)c2cc(C)cc(C)c2)C(C)(C)C)c1C` [METHOXYFENOZIDE], in the assay on Plutella xylostella [1], the RatioLC50 is on record as 37.6. Also, the LC50 worked out at 7.33 µg/mL (≈ 19.9 µM) in the assay on Plutella xylostella [2] and 276 µg/mL (≈ 748 µM) with Plutella xylostella [3].

Consider `CC[C@H]1CCC[C@H](O[C@H]2CC[C@H](N(C)C)[C@@H](C)O2)[C@@H](C)C(=O)C2=C[C@@H]3[C@@H](C=C(C)[C@@H]4C[C@@H](O[C@@H]5O[C@@H](C)[C@H](OC)[C@@H](OC)[C@H]5OC)C[C@@H]34)[C@@H]2CC(=O)O1.CC[C@H]1CCC[C@H](O[C@H]2CC[C@H](N(C)C)[C@@H](C)O2)[C@@H](C)C(=O)C2=C[C@@H]3[C@@H](C=C[C@@H]4C[C@@H](O[C@@H]5O[C@@H](C)[C@H](OC)[C@@H](OC)[C@H]5OC)C[C@@H]34)[C@@H]2CC(=O)O1`, for which, in the assay with Plutella xylostella [1], the RatioLC50 came to 2.34. For the same compound, the LC50 with Plutella xylostella [2] amounted to 0.188 µg/mL; in the assay on Plutella xylostella [3], 0.439 µg/mL.

On to `CCc1ccc(C(=O)NN(C(=O)c2cc(C)cc(C)c2)C(C)(C)C)cc1` [TEBUFENOZIDE], for which, in the assay with Plutella xylostella [1], the RatioLC50 is listed as 27.9. Moreover, the values for the LC50 with Plutella xylostella [2] and in the assay on Plutella xylostella [3] were 12.6 µg/mL (≈ 35.7 µM) and 353 µg/mL (≈ 1000 µM), respectively.

In the case of `Cc1cc(C)cc(C(=O)N(NC(=O)c2ccc3c(c2C)OC(C)C3)C(C)(C)C)c1` (centres undefined) [FUXIAN], the RatioLC50 in the assay on Plutella xylostella [1] is given as 302.8. Also, the LC50 with Plutella xylostella [2] came out at 2.23 µg/mL (≈ 5.65 µM); in the assay with Plutella xylostella [3] it was 676 µg/mL (≈ 1710 µM).

On to `CC[C@H](C)[C@H]1O[C@]2(C=C[C@@H]1C)C[C@@H]1C[C@@H](C/C=C(\C)[C@@H](O[C@H]3C[C@H](OC)[C@@H](O[C@H]4C[C@H](OC)[C@@H](O)[C@H](C)O4)[C@H](C)O3)[C@@H](C)/C=C/C=C3\CO[C@@H]4[C@H](O)C(C)=C[C@@H](C(=O)O1)[C@]34O)O2.CO[C@H]1C[C@H](O[C@H]2[C@H](C)O[C@@H](O[C@@H]3/C(C)=C/C[C@@H]4C[C@@H](C[C@]5(C=C[C@H](C)[C@@H](C(C)C)O5)O4)OC(=O)[C@@H]4C=C(C)[C@@H](O)[C@H]5OC/C(=C\C=C\[C@@H]3C)[C@]54O)C[C@@H]2OC)O[C@@H](C)[C@@H]1O` [ABAMECTIN], for which the RatioLC50 in the assay on Plutella xylostella [1] is 7.02. For the same compound, the LC50 was determined as 1.12 µg/mL in the assay on Plutella xylostella [2] and 7.87 µg/mL with Plutella xylostella [3].

As for `O=C(NC(=O)c1c(F)cccc1F)Nc1cc(Cl)c(OC(F)(F)C(F)F)c(Cl)c1` [HEXAFLUMURON], the RatioLC50 in the assay with Plutella xylostella [1] was found to be 28.7. The LC50 amounted to 9.56 µg/mL (≈ 20.7 µM) in the assay with Plutella xylostella [2] and 274 µg/mL (≈ 594 µM) in the assay with Plutella xylostella [3].

Consider `CC(C)(C)N(NC(=O)c1ccccc1)C(=O)c1ccccc1` [RH-5849], for which the RatioLC50 in the assay with Plutella xylostella [1] stood at 10.8. Also, the LC50 in the assay on Plutella xylostella [2] was 10.6 µg/mL (≈ 35.8 µM); in the assay on Plutella xylostella [3] it was 114 µg/mL (≈ 385 µM).

Turning to `CNC(=O)ON=C(C)SC` [METHOMYL], in the assay on Plutella xylostella [1], the RatioLC50 was 1.92. Moreover, the figures for the LC50 with Plutella xylostella [2] and with Plutella xylostella [3] were 67.4 µg/mL (≈ 416 µM) and 130 µg/mL (≈ 798 µM), respectively.

As usually defined, the LC50 is the concentration that kills 50% of the test population.
